The values below come from patent US20260256751A1, “COMBINATION OF BETA-2-ADRENERGIC RECEPTOR AGONISTS AND GLP-1 RECEPTOR AGONISTS FOR USE IN TREATING HYPERGLYCAEMIA” (ATROGI AB, priority 2023, published 2026).

For assay [1], the system named is differentiated L6-myotubes. The assay can be described thus: Glucose uptake screen (Biological example 1 of WO 2019/053427). The note with it: compound at 10 μM, activity relative to isoproterenol at 10 μM, read-out: Biological example 1 of WO 2019/053427 (GU). The class given is cell-based. Summed up:
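Rat L6 myoblasts were differentiated into myotubes over 7 days in 2% FBS, then serum-starved overnight. Cells were stimulated with 1×10^−5 M compound plus β2 antagonist ICI-118551 for 1 h 40 min and re-dosed for 20 min in glucose-free medium. Uptake of 50 nM ^3H-2-deoxyglucose over 10 min was counted after NaOH lysis.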

Assay [2] concerns differentiated L6-myotubes. The assay can be described thus: cAMP production relative to isoprenaline (Biological example 2 of WO 2019/053427). The class given is cell-based. The note with it: 0.25 h, compound at 10 μM, activity relative to isoproterenol at 10 μM. In outline:
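Differentiated L6 myotubes stimulated 15 min with test compound or isoprenaline, each at final 1×10^−5 M, in HBSS with 1% BSA, 5 mM HEPES, 1 mM IBMX, pH 7.4. cAMP production by the compound expressed relative to that induced by the same concentration of isoprenaline.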
On the technique in general: Changes in cAMP serve as a functional read-out for many G protein-coupled receptors.

On to `O[C@@H](CNCCC[C@H]1CC[C@H](OCc2ccccc2)CC1)c1cccc(F)c1` [Compound 278, (R)-1-(m-fluoropheny)-2-{3-[(1r,4S)-4-(benzyloxy)cyclohexyl]pro-pylamino}-1-ethanol], for which the Emax at 10 µM in assay [1] is 25 to 50%; in assay [2] it was under 25%.
For `CC(C)(NC[C@H](O)c1cccc(F)c1)[C@H]1CC[C@H](OCc2ccccc2)CC1` [Compound 279, (R)-1-(m-fluorophenyl)-2-{1-methyl-1-[(1r,4R)-4-(benzyloxy)cyclohexyl]eth-ylamino}-1-ethanol] the same measures were 50 to 75% and under 25%.
The matching figures for `CC(C)(NC[C@H](O)c1cccc(F)c1)[C@H]1CC[C@@H](OCc2ccccc2)CC1` [Compound 280, (R)-1-(m-fluorophenyl)-2-{1-methyl-1-[(1s,4S)-4-(benzyloxy)cyclohexyl]eth-ylamino}-1-ethanol]: over 75% and under 25%.
As to `CC(C)(NC[C@H](O)c1cncc(F)c1)[C@H]1CC[C@H](OCc2ccccc2)CC1` [Compound 281, (R)-1-(5-fluoro-3-pyridyl)-2-{1-methyl-1-[(1r,4R)-4-(benzyloxy)cyclohexyl]eth-ylamino}-1-ethanol], the results for the Emax at 10 µM in assay [1] and in assay [2] were 50 to 75% and under 25%, respectively.
The matching figures for `CC(C)(NC[C@H](O)c1cncc(F)c1)[C@H]1CC[C@@H](OCc2ccccc2)CC1` [Compound 282, (R)-1-(5-fluoro-3-pyridyl)-2-{1-methyl-1-[(1s,4S)-4-(benzyloxy)cylcohexyl]eth-ylamino}-1-ethanol]: 50 to 75% and under 25%.
The matching figures for `CC(C)(NC[C@H](O)c1cccc(F)c1)[C@H]1CC[C@H](O)CC1` [Compound 283, (R)-1-(m-fluorophenyl)-2-{1-methyl-1-[(1r,4R)-4-hydroxycyclohexyl]ethyl-amino}-1-ethanol]: 50 to 75% and under 25%.
The matching figures for `CC(C)(NC[C@H](O)c1cccc(F)c1)[C@H]1CC[C@@H](O)CC1` [Compound 284, (R)-1-(m-fluorophenyl)-2-{1-methyl-1-[(1s,4S)-4-hydroxycyclohexyl]ethyl-amino}-1-ethanol]: 50 to 75% and under 25%.
For `CC(C)(NC[C@H](O)c1cncc(F)c1)[C@H]1CC[C@H](O)CC1` [Compound 285, (R)-1-(5-fluoro-3-pyridyl)-2-{1-methyl-1-[(1r,4R)-4-hydroxycyclohexyl]ethyl-amino}-1-ethanol], the Emax at 10 µM in assay [1] was 50 to 75%; in assay [2], under 25%.
The matching figures for `CC(C)(NC[C@H](O)c1cncc(F)c1)[C@H]1CC[C@@H](O)CC1` [Compound 286, (R)-1-(5-fluoro-3-pyridyl)-2-{1-methyl-1-[(1s,4S)-4-hydroxycyclohexyl]ethyl-amino}-1-ethanol]: 25 to 50% and under 25%.
Regarding `O[C@@H](CNCC[C@H]1CC[C@@H](OCc2ccccc2)CC1)c1cccc(F)c1` [Compound 287, (R)-1-(m-fluorophenyl)-2-{2-[(1s,4S)-4-(benzyloxy)cyclohexyl]eth-ylamino}-1-ethanol], the Emax at 10 µM is 50 to 75% in assay [1] and under 25% in assay [2].
For `O[C@@H](CNCC[C@H]1CC[C@H](OCc2ccccc2)CC1)c1cccc(F)c1` [Compound 288, (R)-1-(m-fluorophenyl)-2-{2-[(1r,4R)-4-(benzyloxy)cyclohexyl]eth-ylamino}-1-ethanol] the same measures were 25 to 50% and under 25%.
The matching figures for `CC(C)(CC[C@H]1CC[C@H](O)CC1)NC[C@H](O)c1cncc(F)c1` [Compound 289, (R)-2-{1,1-dimethyl-3-[(1r,4S)-4-hydroxycyclohexyl]propyl-amino}-1-(5-fluoro-3-pyridyl)-1-ethanol]: 25 to 50% and under 25%.
The matching figures for `CC(C)(CC[C@H]1CC[C@H](O)CC1)NC[C@H](O)c1cccc(F)c1` [Compound 290, (R)-2-{1,1-dimethyl-3-[(1r,4S)-4-hydroxycyclohexyl]propyl-amino}-1-(m-fluorophenyl)-1-ethanol]: 25 to 50% and under 25%.
On to `O[C@@H](CNCC[C@H]1CC[C@@H](OCc2ccccc2)CC1)c1cncc(F)c1` [Compound 291, (R)-1-(5-fluoro-3-pyridyl)-2-{2-[(1s,4S)-4-(benzyloxy)cyclohexyl]ethylamino}-1-ethanol], for which the Emax at 10 µM in assay [1] was 50 to 75%; in assay [2], under 25%.
For the compound `O[C@@H](CNCC[C@H]1CC[C@H](OCc2ccccc2)CC1)c1cncc(F)c1` [Compound 292, (R)-1-(5-fluoro-3-pyridyl)-2-{2-[(1r,4R)-4-(benzyloxy)cyclohexyl]ethylamino}-1-ethanol], the Emax at 10 µM in assay [1] and in assay [2] was under 25% each time.
With `O[C@@H](CNCC[C@H]1CC[C@@H](O)CC1)c1cncc(F)c1` [Compound 293, (R)-1-(5-fluoro-3-pyridyl)-2-{2-[(1s,4S)-4-hydroxycyclohexyl]ethylamino}-1-ethanol], the Emax at 10 µM was 25 to 50% in assay [1] and under 25% in assay [2].
For `O[C@@H](CNCC[C@H]1CC[C@H](O)CC1)c1cncc(F)c1` [Compound 294, (R)-1-(5-fluoro-3-pyridyl)-2-{2-[(1r,4R)-4-hydroxycyclohexyl]ethylamino}-1-ethanol] the same measures were 25 to 50% and under 25%.
For `CC(C)(CC[C@H]1CC[C@@H](O)CC1)NC[C@H](O)c1cccc(F)c1` [Compound 295, (R)-2-{1,1-dimethyl-3-[(1s,4R)-4-hydroxycyclohexyl]propylamino}-1-(m-fluorophenyl)-1-ethanol] the same measures were over 75% and under 25%.
For `CC(C)(CC[C@H]1CC[C@@H](O)CC1)NC[C@H](O)c1cncc(F)c1` [Compound 296, (R)-2-{1,1-dimethyl-3-[(1s,4R)-4-hydroxycyclohexyl]propylamino}-1-(5-fluoro-3-pyridyl)-1-ethanol] the same measures were over 75% and under 25%.
In the case of `O[C@@H](CNCC[C@H]1CC[C@@H](O)CC1)c1cccc(F)c1` [Compound 297, (R)-1-(m-fluorophenyl)-2-{2-[(1s,4S)-4-hydroxycyclohexyl]ethylamino}-1-ethanol], the results for the Emax at 10 µM in assay [1] and in assay [2] were 50 to 75% and under 25%, respectively.
For `O[C@@H](CNCC[C@H]1CC[C@H](O)CC1)c1cccc(F)c1` [Compound 298, (R)-1-(m-fluorophenyl)-2-{2-[(1r,4R)-4-hydroxycyclohexyl]ethylamino}-1-ethanol] the same measures were 25 to 50% and under 25%.
The matching figures for `CC(C)(C[C@H]1CC[C@H](O)CC1)NC[C@H](O)c1cncc(F)c1` [Compound 299, (R)-2-{1,1-dimethyl-2-[(1r,4R)-4-hydroxycyclohexyl]ethylamino}-1-(5-fluoro-3-pyridyl)-1-ethanol]: 50 to 75% and under 25%.
For `CC(C)(C[C@H]1CC[C@H](O)CC1)NC[C@H](O)c1cccc(F)c1` [Compound 300, (R)-2-{1,1-dimethyl-2-[(1r,4R)-4-hydroxycyclohexyl]ethylamino}-1-(m-fluorophenyl)-1-ethanol] the same measures were over 75% and under 25%.
Consider `CC(C)(C[C@H]1CC[C@@H](O)CC1)NC[C@H](O)c1cncc(F)c1` [Compound 301, (R)-2-{1,1-dimethyl-2-[(1s,4S)-4-hydroxycyclohexyl]ethylamino}-1-(5-fluoro-3-pyridyl)-1-ethanol], for which the values for the Emax at 10 µM in assay [1] and in assay [2] were over 75% and under 25%, respectively.
For `CC(C)(C[C@H]1CC[C@@H](O)CC1)NC[C@H](O)c1cccc(F)c1` [Compound 302, (R)-2-{1,1-dimethyl-2-[(1s,4S)-4-hydroxycyclohexyl]ethylamino}-1-(m-fluorophenyl)-1-ethanol] the same measures were 50 to 75% and under 25%.
The matching figures for `O[C@@H](CNCCC[C@H]1CC[C@H](O)CC1)c1cccc(F)c1` [Compound 303, (R)-1-(m-fluorophenyl)-2-{3-[(1r,4S)-4-hydroxycyclohexyl]propylamino}-1-ethanol]: 50 to 75% and under 25%.
The matching figures for `O[C@@H](CNCCC[C@H]1CC[C@@H](O)CC1)c1cncc(F)c1` [Compound 304, (R)-1-(5-fluoro-3-pyridyl)-2-{3-[(1s,4R)-4-hydroxycyclohexyl]propylamino}-1-ethanol]: 50 to 75% and under 25%.
`O[C@@H](CNCCC[C@H]1CC[C@H](O)CC1)c1cncc(F)c1` [Compound 305, (R)-1-(5-fluoro-3-pyridyl)-2-{3-[(1r,4S)-4-hydroxycyclohexyl]propylamino}-1-ethanol]: the results for the Emax at 10 µM in assay [1] and in assay [2] were 25 to 50% and under 25%, respectively.
The matching figures for `O[C@@H](CNCCC[C@H]1CC[C@@H](O)CC1)c1cccc(F)c1` [Compound 306, (R)-1-(m-fluorophenyl)-2-{3-[(1s,4R)-4-hydroxycyclohexyl]propylamino}-1-ethanol]: 25 to 50% and under 25%.
The matching figures for `CC(=O)N[C@H]1CC[C@@H](CNC[C@H](O)c2cccc(F)c2)CC1` [Compound 307, N-[(1S,4s)-4-{[(R)-2-(m-fluorophenyl)-2-hydroxyethylamino]methyl}cyclohexyl]acetamide]: 50 to 75% and under 25%.
